Common to all, as to type: cell-based, human
The test system of experiment [1] is BRCA2 SMARTpool siRNA-transfected LNCaP cells. Nature of the experiment: MTT cell growth of BRCA2 siRNA-transfected LNCaP cells with enzalutamide. As to conditions: BRCA2 siRNA LNCaP vs scrambled siRNA; ENZ 20 μM, 96 hours post transfection (FIG. 7G). As to the method:
Cells infected with scrambled (scr) gRNA were used as control. Equal amount of proteins was loaded in WedgeWell 6% gel and western blot was performed. ˜400 kDa BRCA2 band is indicated by arrow. GAPDH served as loading controls for western blot and qPCR. […] Genotypes are detected by PCR amplification followed by being treated with T7 endonuclease. Wt and mutant BRCA2 are indicated by red and green arrows, respectively. […] Equivalent volume of DMSO was used as placebo treatment. Cell growth was measured by MTT assay (see Example 1); SD, P-values determined by Student's t-test. *P<0.05, **P<0.01, ***P<0.001. […] Cell growth was measured by crystal violet staining assay (see Example 1) (±SD); P-values determined by Student's t-test. […] Cell growth was measured by MTT assay (see Example 1) (±SD); P-values determined by Student's t-test. […] Total RNA was isolated, and BRCA2 mRNA was analyzed by qPCR. […] Cell growth was measured by MTT assay; SD, P-values determined by Student's t-test. […]
(§1) Cell Proliferation Assay by MTT, BrdU and Crystal Violet. […] MTT crystals were dissolved in isopropanol and absorbance was measured in a BioTek plate reader at […] and represented graphically.

The subject of experiment [2] is BRCA2 SMARTpool siRNA-transfected LAPC4 cells. Description: MTT cell growth of BRCA2 siRNA-transfected LAPC4 cells with enzalutamide. As to conditions: BRCA2 siRNA LAPC4 vs scrambled siRNA; ENZ 20 μM, 72 hours after transfection (FIG. 1F). As for the experimental part:
Cells infected with scrambled (scr) gRNA were used as a negative control. Cas9 and RHoGDI served as loading controls. […] Nuclei were stained with DAPI (blue). […] P-values were determined by Student's t-test. ***P<0.001. […] Equivalent volume of DMSO was used as placebo treatment. Cell growth was measured by BRDU incorporation assay (see Example 1) (±SD); P-values were determined by Student's t-test.***P<0.001. […] Parental LAPC4 cells were transiently transfected with BRCA2-specific SMARTpool siRNA for 96 hours. Total RNA was isolated, and BRCA2 mRNA was analyzed by qPCR. Scrambled SMARTpool siRNA-transfected cells were used as control (top). BRCA2- or scrambled SMARTpool siRNA-transfected LAPC4 cells were cultured in charcoal-stripped medium (CSS) or complete medium supplemented with enzalutamide (ENZ; 20 μM) for 72 hours after transfection (bottom). Equivalent volume of DMSO was used as placebo treatment. Cell growth was measured by MTT assay; SD, p-values were determined by Student's t-test. […] Control and CRISPR-edited LNCaP cells (10^3 cells/well) were mixed with Matrigel, and 3D cell cultures (organoids) were grown for 7 days in androgen-depleted, growth factor-enriched media. […]
as §1

Experiment [3] concerns BRCA2-null LNCaP cells. Description: Cell growth (BrdU, crystal violet, MTT) of BRCA2 CRISPR-edited LNCaP cells with enzalutamide. As to conditions: BRCA2-null LNCaP vs scr control; complete medium, 7 days (FIGS. 1E, 7D, 7F). As for the experimental part: Cells infected with scrambled (scr) gRNA were used as a negative control. Cas9 and RHoGDI served as loading controls. […] Nuclei were stained with DAPI (blue). […] P-values were determined by Student's t-test. ***P<0.001. […] Equivalent volume of DMSO was used as placebo treatment. Cell growth was measured by BRDU incorporation assay (see Example 1) (±SD); P-values were determined by Student's t-test.***P<0.001. […] Parental LAPC4 cells were transiently transfected with BRCA2-specific SMARTpool siRNA for 96 hours. Total RNA was isolated, and BRCA2 mRNA was analyzed by qPCR. Scrambled SMARTpool siRNA-transfected cells were used as control (top). […] Cell growth was measured by MTT assay; SD, p-values were determined by Student's t-test. […]
Cells infected with scrambled (scr) gRNA were used as control. […] Genotypes are detected by PCR amplification followed by being treated with T7 endonuclease. […] Cell growth was measured by MTT assay (see Example 1); SD, P-values determined by Student's t-test. *P<0.05, **P<0.01, ***P<0.001. […] Cell growth was measured by crystal violet staining assay (see Example 1) (±SD); P-values determined by Student's t-test. […] Cell growth was measured by MTT assay (see Example 1) (±SD); P-values determined by Student's t-test. […] Total RNA was isolated, and BRCA2 mRNA was analyzed by qPCR. […] Cell growth was measured by MTT assay; SD, P-values determined by Student's t-test. […]

In a further experiment the test system is MSK-PCa1 organoid. Description: MTT growth of mCRPC organoids with PARPi. As to conditions: compared to benign organoid; 3 days (FIG. 6E). The text has this: (§2) Near-diploid benign prostate organoid is used as a control. […] GAPDH served as the loading control. […] The graphs show cell growth measured by MTT assay (±SD); P-trends determined by 2-way ANOVA.
(§3) Cell Culture. Human prostate cancer cells LNCaP, 22RV1, DU145, PC3, and VCaP were obtained from ATCC (Manassas, VA). LNCaP-C42 cells were obtained from VitroMed (Burlington, NC). The LNCaP-Abl cell line, E006AA-T cells, PC3M LAPC4 cell line were obtained. These cells were maintained in 10% FBS (LNCaP, LNCaP-C42, LAPC4, VCaP, 22RV1, DU145, PC3, PC3M, and E006AA) or 10% charcoal-stripped serum (LNCaP-Abl) supplemented with 2 mM of L-glutamine and 1×antibiotic/antimycotic (Gemini Bio-Products, Sacramento, CA) at 37° C. in 5% CO2. Human prostate epithelial cell RWPE1 was obtained from ATCC and cultured in keratinocyte serum-free medium (Thermo Fisher Scientific, Waltham, MA) at 37° C. in 5% CO2. Cells were authenticated by human short tandem repeat profiling at the MSK Integrated Genomics Operation Core. Patient-derived human prostate cancer organoids were cultured as described. Gao et al., Cell 159:176-87 (2014).
(§4) Cell Proliferation Assay by MTT, BrdU and Crystal Violet. For MTT assay, cells were plated at 2.5×10^3 per well in 96-well plates in complete media (10% FBS) or media supplemented with 10% charcoal-stripped serum. Cells were either treated with DMSO or with indicated inhibitors. After indicated times, cells were incubated in 0.5 mg/mL MTT (Invitrogen) for 1 hour at 37° C. MTT crystals were dissolved in isopropanol and absorbance was measured in a BioTek plate reader at […] and represented graphically.

A further experiment deals with MSK-PCa3 organoid. Nature of the experiment: MTT growth of mCRPC organoids with PARPi. As to conditions: compared to benign organoid; 3 days (FIG. 6E).
Description: as §2, §3, §4

The test system of a further experiment is LNCaP-BRCA2-RB1 cells. Nature of the experiment: MTT cell growth with PARP inhibitors. As to conditions: LNCaP-BRCA2-RB1 vs BRCA2-null LNCaP; olaparib 3 μM, talazoparib 0.005 μM (FIG. 2E). As for the experimental part: (§5) Scr-CRISPR and BRCA2-CRISPR2 cells were also transfected with non-targeting shRNA (scr-Sh) for control of shRNA. RHoGDI served as the loading control. […] Equivalent volume of DMSO was used as placebo treatment. Cell growth was measured by MTT assay; SD, p-values were determined by Student's t-test. […] FIG. 2C (2nd and 3rd rows) show the immunofluorescence (400× magnification) of F-actin filament stained with phalloidin in indicated CRISPR/shRNA-infected LNCaP cells. Nuclei were stained with DAPI (blue). […] 5×10^3 indicated cells were plated on the top of Boyden chamber (see Example 1) in serum-free media; 10% serum in the bottom chamber was used as chemo-attractant. After 48 hours, cells in the lower side of the chamber were fixed, stained, and photographed (100× magnification). […] Nuclei were stained with DAPI (blue). […] The graphs show cell growth measured by MTT assay (±SD); P-values determined by Student's t-test. […] RNA sequencing was analyzed by Partek.
(§6) To generate BRCA2-RB1 knockout-knockdown LNCaP cells, parental LNCaP cells were first infected with lentivirus containing BRCA2 gRNA or scr gRNA. Pooled population of the stable cells were established by puromycin selection and analyzed by western blot and qPCR. BRCA2-knockout or scr LNCaP cells were infected with lentivirus containing RB1 shRNA followed by hygromycin selection. BRCA2-knockout or scr (gRNA) LNCaP cells also infected with lentiviral non-targeting shRNA (scr-shRNA) were used as control. Cells within 4-10 passages after stable selection were used for the following experiments.
as §4

Experiment [4] deals with RB1 knockdown LNCaP cells. Nature of the experiment: MTT cell growth with PARP inhibitors. As to conditions: RB1 knockdown vs control LNCaP cells; olaparib 3 μM, talazoparib 0.005 μM (FIG. 2E). As for the experimental part:
as §5, §6, §4

The next experiment deals with BRCA2-null RWPE1 cells. Nature of the experiment: MTT cell growth with olaparib. As to conditions: BRCA2-null vs control RWPE1; 3 μM and 10 μM olaparib, 7 days (FIG. 3G). As to the method: Scr-CRISPR and BRCA2-CRISPR2 cells were also transfected with non-targeting shRNA (scr-Sh) for control of shRNA. GAPDH served as the loading control. […] Nuclei were stained with DAPI (blue). […] Control cells were transfected with empty vector. […] GAPDH served as the loading control. […] LNCaP cells were used as control. GAPDH served as the loading control. […] Nuclei were stained with DAPI (blue). […] Equivalent volume of DMSO was used as placebo treatment. Cell growth was measured by MTT assay; SD, P-values determined by Student's t-test. […] LNCaP-BRCA2-RB1 or control cells were incubated in charcoal-stripped medium (CSS) for 24 hours followed by treatment with 1 nM R1881 for another 48 hours (in CSS). […] After 24 hours, cells in the lower side of the chamber were fixed, stained, photographed in 100× magnification (top panel), and counted and represented in the form of the bar graph (bottom panel). P-values were determined by Student's t-test.
(§7) To generate BRCA2 knockout RWPE1 cells, BRCA2 gRNA2 was cloned into LentiCRISPRv2-GFP backbone which constitutively expresses Cas9 and GFP. Lentiviral infected cells were selected by FACS sorting for GFP positive cells (twice) and analyzed by western blot. […] Loss of BRCA2 in the pooled populations of LNCaP cells was analyzed by western blot using BRCA2-specific antibodies and this pooled population of cells was used for the following experiments. […]

For experiment [5], the system named is BRCA2-null LNCaP cells. Nature of the experiment: MTT cell growth of BRCA2 CRISPR-edited LNCaP cells with PARP inhibitors or cisplatin. As to conditions: BRCA2 knockout LNCaP vs control gRNA (scr) cells; complete medium, 6 days (FIG. 7C). As for the experimental part: Cells infected with scrambled (scr) gRNA were used as control. Equal amount of proteins was loaded in WedgeWell 6% gel and western blot was performed. ˜400 kDa BRCA2 band is indicated by arrow. GAPDH served as loading controls for western blot and qPCR. […] Genotypes are detected by PCR amplification followed by being treated with T7 endonuclease. Wt and mutant BRCA2 are indicated by red and green arrows, respectively. […] Equivalent volume of DMSO was used as placebo treatment. Cell growth was measured by MTT assay (see Example 1); SD, P-values determined by Student's t-test. *P<0.05, **P<0.01, ***P<0.001. FIGS. 7D-7E show the growth curve (FIG. 7D) and a bar graph (FIG. 7E) representing the cell growth of LNCaP BRCA2 CRISPR-edited and non-targeting control gRNA (scr) infected cells in complete medium supplemented with enzalutamide (ENZ; indicated concentration) for 7 days or charcoal-stripped medium (CSS) for 5 days, respectively. Equivalent volume of DMSO was used as placebo treatment. Cell growth was measured by crystal violet staining assay (see Example 1) (±SD); P-values determined by Student's t-test. […] Equivalent volume of DMSO was used as placebo treatment. Cell growth was measured by MTT assay (see Example 1) (±SD); P-values determined by Student's t-test. […] Total RNA was isolated, and BRCA2 mRNA was analyzed by qPCR. […] Cell growth was measured by MTT assay; SD, P-values determined by Student's t-test.
as §7, §1

For `CNC(=O)c1ccc(N2C(=S)N(c3ccc(C#N)c(C(F)(F)F)c3)C(=O)C2(C)C)cc1F` [enzalutamide], the “growth in complete media supplemented with enzalutamide” value in experiment [1] and in experiment [2] was “resistance to androgen depletion” in each case. In addition, the “resistance to enzalutamide (cell growth)” value in the experiment on BRCA2-null LNCaP cells [3] is on record as “relative resistance”.

Regarding `O=C(c1cc(Cc2n[nH]c(=O)c3ccccc23)ccc1F)N1CCN(C(=O)C2CC2)CC1` [olaparib], the “organoid growth (MTT)” value in the experiment on MSK-PCa1 organoid and in the experiment on MSK-PCa3 organoid was “growth reduction” in each case. Besides, the “cell growth inhibition (MTT)” value with LNCaP-BRCA2-RB1 cells is on record as “more cell growth inhibition”. The “inhibitory effect on cell growth (MTT)” value in experiment [4] was “could not be detected”. Also, in the experiment on BRCA2-null RWPE1 cells, the “sensitivity (cell growth, MTT)” value was “enhanced sensitivity”.

As to `CNCc1ccc(-c2[nH]c3cc(F)cc4c3c2CCNC4=O)cc1` [rucaparib], the “sensitivity (cell growth, MTT)” value with BRCA2-null LNCaP cells [5] is recorded as “more sensitivity”.
